Assay results as given in patent US9273006B2, “Anabolic compounds for treating and preventing bone loss diseases” (SYDDANSK UNIVERSITET, priority 2012, dated 2016).
Read-outs that look alike come from different tables or passages of the source.

System: hMSC-TERT
Conditions: 6 days after induction, hMSC-TERT
[1] = 1 μM inhibitor in osteogenic inducing media
[2] = 10 μM inhibitor in osteogenic inducing media

Row | SMILES | Relative ALP activity [1] | Relative ALP activity [2]
1 | CCCCCCCCCCCCCCCC(=O)OC(CC(=O)O)C[N+](C)(C)C.[Cl-] (racemic) [Palmitoyl-DL-carnitine Cl] | 0.9966 | 0.9612
2 | Nc1ncc2[nH]cnc2n1 [2-Aminopurine] | 1.017 | 0.6855
3 | Nc1ncnc2c1c(I)cn2[C@@H]1O[C@H](CO)[C@@H](O)[C@H]1O [5-Iodotubercidin] | 1.035 | Toxic
4 | N#CC(C#N)=Cc1ccc([N+](=O)[O-])c(O)c1 [AG-126] | 0.9053 | 1.156
5 | N#CC(=Cc1ccc2[nH]ccc2c1)C(N)=C(C#N)C#N [AG-370] | 1.057 | 0.7902
6 | N#C/C(=C/c1ccc(O)c(O)c1)C(=O)NCc1ccccc1 [AG-490] | 0.9657 | 0.3482
7 | N#C/C(=C\c1ccc(O)c(O)c1)C(=O)Nc1ccccc1 [AG-494] | 0.8788 | 0.33
8 | COc1cc(/C=C(\C#N)C(N)=O)cc(CSc2nc3ccccc3s2)c1O [AG-825] | 0.8754 | 1.056
9 | CC(C)(C)c1cc(/C=C(\C#N)C(N)=S)cc(C(C)(C)C)c1O [AG-879] | 0.6801 | 0.7467
10 | COc1cc2ncc(-c3ccccc3)nc2cc1OC [AG-1296] | 0.7685 | 0.5376
11 | O=c1cc(-c2ccc(O)cc2)oc2cc(O)cc(O)c12 [Apigenin] | 0.9029 | 0.4027
12 | Cc1ccc(S(=O)(=O)/C=C/C#N)cc1 [BAY 11-7082] | 0.9356 | Toxic
13 | O=C(O)c1ccc2nc(-c3ccccc3)c(-c3ccccc3)nc2c1 [BML-257] | 0.8443 | 0.7884
14 | CC(C)c1cnc(NC(=O)Cc2ccccc2)s1 [BML-259] | 1.001 | 0.7259
15 | OC[C@H]1O[C@@H](n2cnc3cc(Cl)c(Cl)cc32)[C@H](O)[C@@H]1O [DRB] | 0.9718 | 0.5043
16 | O=c1c(-c2ccc(O)cc2)coc2cc(O)ccc12 [Daidzein] | 1.14 | 1.025
17 | COc1c(C=O)c(O)cc2c1C(=O)c1ccccc1C2=O [Damnacanthal] | 0.8711 | 0.3273
18 | COC(=O)/C=C/c1cc(O)ccc1O [Erbstatin analog] | 0.8892 | 0.7022
19 | CN(C)CCCn1cc(C2=C(c3c[nH]c4ccccc34)C(=O)NC2=O)c2ccccc21 [GF 109203X] | 0.3532 | Toxic
20 | O=C1Nc2ccc(I)cc2/C1=C/c1cc(Br)c(O)c(Br)c1 [GW 5074] | 0.7969 | 0.5773
21 | O=c1c(-c2ccc(O)cc2)coc2cc(O)cc(O)c12 [Genistein] | 1.215 | 0.7692
22 | CC1CNCCN1S(=O)(=O)c1cccc2cnccc12 (centres unmarked) [H-7] | 1.087 | 0.9015

Row | SMILES | Relative ALP activity [1] | Relative ALP activity [2]
23 | NCCNS(=O)(=O)c1cccc2cnccc12 [H-9] | 0.9547 | 0.9783
24 | O=S(=O)(NCCNC/C=C/c1ccc(Br)cc1)c1cccc2cnccc12 [H-89] | 0.8924 | 0.3847
25 | NC(N)=NCCNS(=O)(=O)c1cccc2cnccc12 [HA-1004] | 0.9706 | 0.9424
26 | O=S(=O)(c1cccc2cnccc12)N1CCCNCC1 [HA-1077] | 1.02 | 0.908
27 | COCc1cc(O)c(O)c(O)c1-c1c(COC)cc(O)c(O)c1O [HBDDE] | 0.8861 | 0.7296
28 | O=C(O)c1cc(NCc2cc(O)ccc2O)ccc1O [HDBA] | 0.8708 | 0.9836
29 | O=P(O)(O)C(O)c1ccc2ccccc2c1 (centres unmarked) [HNMPA] | 0.864 | 0.8557
30 | Cc1cc(O)c2c(=O)c3c(O)cc(O)c4c5c(O)cc(O)c6c(=O)c7c(O)cc(C)c8c1c2c(c34)c(c78)c65 [Hypericin] | 0.8534 | 
31 | O=C1Nc2ccccc2/C1=C1/Nc2ccccc2C1=O [Indirubin] | 0.3571 | 0.18
32 | CN([C@@H](Cc1ccc(OS(=O)(=O)c2cccc3cnccc23)cc1)C(=O)N1CCN(c2ccccc2)CC1)S(=O)(=O)c1cccc2cnccc12 [KN-62] | 0.956 | 0.9222
33 | COc1ccc(S(=O)(=O)N(CCO)c2ccccc2CN(C)C/C=C/c2ccc(Cl)cc2)cc1 [KN-93] | 0.7347 | 0.6802
34 | O=C1Cc2c([nH]c3ccc(Br)cc23)-c2ccccc2N1 [Kenpaullone] | 0.5044 | 0.2055
35 | C/C(O)=C(\C#N)C(=O)Nc1cc(Br)ccc1Br [LFM-A13] | 0.7381 | 0.9154
36 | O=c1cc(N2CCOCC2)oc2c(-c3ccccc3)cccc12 [LY 294002] | 0.8628 | 0.439
37 | O=C(O)c1cc(N(Cc2ccccc2O)Cc2cc(O)ccc2O)ccc1O [Lavendustin A] | 0.8641 | 0.4935
38 | O=S(=O)(c1cccc2c(I)cccc12)N1CCCNCC1 [ML-7] | 1.031 | 0.9564
39 | O=S(=O)(c1cccc2c(Cl)cccc12)N1CCCNCC1 [ML-9] | 0.9822 | 0.6879
40 | CC(C)n1cnc2c(NCc3ccccc3)nc(NCCO)nc21 [N9-Isopropyl-olomoucine] | 1.128 | 0.6666
41 | Cn1cnc2c(NCc3ccccc3)nc(NCCO)nc21 [Olomoucine] | 1.142 | 0.5408
42 | COc1cccc(-c2cc(=O)c3ccccc3o2)c1N [PD-98059] | 0.5617 | 0.6017
43 | Cc1ccc(-c2nn(C(C)(C)C)c3ncnc(N)c23)cc1 [PP1] | 0.9626 | 0.5665
44 | CC(C)(C)n1nc(-c2ccc(Cl)cc2)c2c(N)ncnc21 [PP2] | 0.8276 | 0.4269

Row | SMILES | Relative ALP activity [1] | Relative ALP activity [2]
45 | Oc1cc(O)cc(/C=C/c2ccc(O)c(O)c2)c1 [Piceatannol] | 0.783 | 0.4885
46 | O.O.O=c1c(O)c(-c2ccc(O)c(O)c2)oc2cc(O)cc(O)c12 [Quercetin dihydrate] | 1.001 | 0.8354
47 | N#C/C(=C\c1cc(Cl)cc(Cl)c1)c1cccnc1 [RG-14620] | 0.8302 | 1.024
48 | CO[C@H]1C[C@@H]2CC[C@@H](C)[C@@](O)(O2)C(=O)C(=O)N2CCCC[C@H]2C(=O)O[C@H]([C@H](C)C[C@@H]2CC[C@@H](O)[C@H](OC)C2)CC(=O)[C@H](C)/C=C(\C)[C@@H](O)[C@@H](OC)C(=O)[C@H](C)C[C@H](C)/C=C/C=C/C=C/1C [Rapamycin] | 0.509 | 0.6057
49 | Cn1cc(C2=C(c3cn(CCCSC(=N)N)c4ccccc34)C(=O)NC2=O)c2ccccc21 [Ro 31-8220] | 0.3607 | Toxic
50 | CC[C@H](CO)Nc1nc(NCc2ccccc2)c2ncn(C(C)C)c2n1 [Roscovitine] | 0.9865 | 0.3918
51 | CC(=O)c1c(O)c(C)c(O)c(Cc2c(O)c3c(c(C(=O)/C=C/c4ccccc4)c2O)OC(C)(C)C=C3)c1O [Rottlerin] | 0.3874 | Toxic
52 | Oc1ccc(-c2nc(-c3ccc(F)cc3)c(-c3ccncc3)[nH]2)cc1 [SB-202190] | 0.7708 | 0.2703
53 | C[S+]([O-])c1ccc(-c2nc(-c3ccc(F)cc3)c(-c3ccncc3)[nH]2)cc1 (centres unmarked) [SB-203580] | 0.824 | 0.458
54 | Oc1c2ccccc2c2c3c(cccc13)N=N2 [SP 600125] | 0.5978 | 0.2913
55 | CC(C)c1cc(/C=C(\C#N)C(=O)NCCCc2ccccc2)cc(C(C)C)c1O [SU1498] | 0.8711 | 0.7853
56 | CN(C)c1ccc(/C=C2\C(=O)Nc3ccccc32)cc1 [SU 4312] | 0.7481 | 0.5349
57 | CCCCCCCCCCCCC/C=C/[C@@H](O)[C@@H](N)CO [Sphingosine] | 1.195 | Toxic
58 | CN[C@@H]1C[C@H]2O[C@@](C)([C@@H]1OC)n1c3ccccc3c3c4c(c5c6ccccc6n2c5c31)C(=O)NC4 [Staurosporine] | TOXIC | Toxic
59 | CC1=C(O)C(=O)[C@@H]2O[C@@H]2C1=O [Terreic acid] | 0.2721 | 0.338
60 | CC(C)(C)c1cc(C=C(C#N)C#N)cc(C(C)(C)C)c1O [Tyrphostin9] | 0.3388 | Toxic
61 | N#CC(C#N)=Cc1ccc(O)c(O)c1 [Tyrphostin 23] | 0.9904 | 0.7067
62 | N#CC(C#N)=Cc1cc(O)c(O)c(O)c1 [Tyrphostin 25] | 0.9397 | 0.8233
63 | N#C/C(=C\c1ccc(O)c(O)c1)C(N)=O [Tyrphostin 46] | 1.179 | 0.9029
64 | N#C/C(=C\c1ccc(O)c(O)c1)C(N)=S [Tyrphostin 47] | 0.901 | 1.005
65 | N#CC(C#N)=C(N)/C(C#N)=C/c1cc(O)c(O)c(O)c1 [Tyrphostin 51] | 0.8997 | 0.8566
66 | N#CC(C#N)=Cc1cc(O)c(O)c([N+](=O)[O-])c1 [Tyrphostin AG 1288] | 0.8684 | 0.802
